{"source": "paper PMC11061149", "about": "“Protein mimetic 2D FAST rescues alpha synuclein aggregation mediated early and post disease Parkinson’s phenotypes” (Nature Communications, 2024)", "key": {"αS": {"target": "T1, αS (Homo sapiens, UniProt P37840)", "T1 construct": "made in house; host or cells: E. coli BL21(DE3)", "assay": "Isothermal titration calorimetry (ITC)", "format": "binding", "settings": "ligand titrated into 15 μM αS in PBS; read-out: dissociation constant (Kd)", "description": "The ITC experiments were performed in a NANO-ITC (TA Instruments, New Castle, DE). For each ITC experiment, a solution of 250 μM NS132 in PBS was serially titrated (2 μL injections […] via rotary syringe, stirring speed at 300 rpm) into a sample cell containing 350 μL of 15 μM αS in the same buffer conditions at 300 sec intervals. The heat associated with each injection was calculated by integrating each heat burst curve using NanoAnalyze software (TA Instruments, New Castle, DE). The associated heat for each injection of NS132 in αS solution was corrected by subtracting heat resulted from the titration of NS132 into buffer (in 1 × PBS) under identical conditions. The corrected heat values were plotted as a function of the molar ratio of NS132 to αS and the plot was fitted using a one binding site independent model available in NanoAnalyze software. The fitting was carried out using 10,000 iterations in the software without any data constraints during the fitting. The ITC titrations were conducted in triplicate and the reported thermodynamic parameters were calculated as an average of three independent experiments."}, "[1]": {"system": "HEK293 cells stably expressing αS-A53T-YFP", "assay": "ProteoStat dye assay, ligand pre-treatment, αS fibers templated intracellular aggregation", "format": "cell-based, human", "settings": "ligand 10 µM for 16 h, washed, then 5 µM αS fibers for 24 h", "description": "We further tested NS163 against intracellular αS aggregation using same HEK293 cells (express αS-A53T-YFP)[23],[24],[50]. In this assay, we added NS163 (10 µM) to the HEK cells and incubated the cells for 16 h, washed the cells and treated with the preformed fibers of αS (5 µM monomer) and incubated for an additional 24 h. The ProteoStat dye-based intensity of HEK cells treated with αS fibers was ~4 fold higher than the control (no fibers) (Supplementary Fig. 19). NS163 was a very potent antagonist as it was able to reduce the intracellular inclusions by 80% at 10 µM, measured using the ProteoStat dye-based assay (Supplementary Fig. 19). Under matched conditions, 10 µM NS132 was able to reduce the intracellular inclusions by 57% (Supplementary Fig. 19). The higher antagonist activity of NS163 than NS132 is likely due to the better cell permeability of the former. […] It is important to point out that our potent ligands (NS163 and NS132) were able to inhibit αS preformed fibers templated aggregation of both monomeric WT αS and A53T αS mutant. It has been shown that the WT αS fibers templated aggregation of WT αS and its mutants is predominantly dependent on the interaction of the fibers with the N-terminus of the monomeric WT αS and its mutants[62],[68],[69]. […]"}, "UA196 worms": {"system": "UA196 worms", "assay": "Chemotaxis assay of UA196 worms", "format": "in vivo, C. elegans", "settings": "50 µM ligand, day 10, E. coli attractant vs ethanol repellent", "description": "For chemotaxis assay, the Chemotaxis (CTX) media plates (2% Agar, 5 mM KH2PO4, 1 mM CaCl2, 1 mM MgSO4, 75 µM FUDR), referred to as PLATE 7, and CTX buffer (5 mM KH2PO4, 1 mM CaCl2, and 1 mM MgSO4) were prepared using previous protocols[24],[78],[85],[86]. The PLATE 7 (without ligand) were treated with ligand (50 µM, stock conc. = 10 mM in DMSO) that was dissolved in CTX buffer (total volume = 300 µL) and was spotted atop the CTX media plates at 20 °C, referred to as PLATE 8. For CTX assay, we prepared another plate referred to as PLATE 9, which was PLATE 7 divided into four equal quadrants and designated as A and C (diagonally opposite), B and D (diagonally opposite). […] The experiment on the WMicroTracker ARENA plate reader (Phylumtech, Santa Fe, Argentina) started within 1 h of the transfer of the worms at 20 °C. […] On day 3, a total of 50 worms were transferred to the center of the PLATE 9 using CTX buffer ( ~20 µL) and the number of worms were counted under an Olympus microscope (SZ-6145, Waltham, MA). […] The worm activity was monitored using the WMicroTracker ARENA plate reader (Phylumtech, Santa Fe, Argentina) at 20 °C for 2 h. […] For day 10, 50 worms (N2 or UA196) from PLATE 7 (without ligand) or PLATE 8 (with 50 µM ligand) were transferred to PLATE 9 using CTX buffer ( ~ 20 µL) and the number of worms were counted under an Olympus microscope (SZ-6145, Waltham, MA). […]"}}}
{"smiles": "Cc1ccc(NC(=O)c2ccc(NC(=O)c3ccc([N+](=O)[O-])c(NCCc4c[nH]c5ccccc45)n3)c(NCC3CCCCC3)n2)c(OCC(=O)O)n1", "note": "[NS132]", "values": [{"measurement": "Kd", "setting": "αS", "result": "1810 ± 330", "unit": "nM"}, {"measurement": "reduction of intracellular inclusions (ProteoStat)", "setting": "[1]", "result": 57, "unit": "%"}, {"measurement": "behavioral deficits / chemotaxis index of UA196 worms, in words", "setting": "UA196 worms", "result": "able to rescue behavioral deficits"}]}
